The source made the active and inactive calls. No cut-off for these calls is given here.
Tests used:
[1] = Cytotoxicity against human U87 cells assessed as viability in presence of beta glucuronidase; type: functional, cell-based, U-87MG ATCC; settings: U-87 MG
[2] = test system: U-87MG ATCC; assay: Cytotoxicity against human U87 cells assessed as viability at 200 uM after 5 days by MTS assay; type: functional, cell-based

CC1=C2C[C@H]3[C@@H](CC=C4C[C@@H](O)CC[C@@]43C)[C@@H]2CC[C@]12O[C@@H]1C[C@H](C)CN[C@H]1[C@H]2C [CYCLOPAMINE]
IC50 [1]: 15.5 µM

CC1=C2C[C@H]3[C@@H](CC=C4C[C@@H](O)CC[C@@]43C)[C@@H]2CC[C@]12O[C@@H]1C[C@H](C)CN(C(=O)OCc3ccc(O[C@@H]4O[C@H](C(=O)O)[C@@H](O)[C@H](O)[C@H]4O)c([N+](=O)[O-])c3)[C@H]1[C@H]2C
Activity [2]: inactive
IC50 [1]: 21 µM

From ChEMBL document CHEMBL1157045, “Study of a cyclopamine glucuronide prodrug for the selective chemotherapy of glioblastoma” (Eur J Med Chem, 2010)
